The source made the active and inactive calls. The calls are words filed in the database; no cut-off is given here.
How the values were obtained:
MGC-803 [1] = assay: Antiproliferative activity against human MGC-803 cells assessed as inhibition of cell growth by SRB assay; assay type: functional, cell-based
MCF7 = assay: Antiproliferative activity against human MCF7 cells assessed as inhibition of cell growth by SRB assay; assay type: functional, cell-based
HeLa = assay: Antiproliferative activity against human HeLa cells assessed as inhibition of cell growth by SRB assay; assay type: functional, cell-based
[2] = Antiproliferative activity against human L02 cells assessed as inhibition of cell growth incubated for 72 hrs by SRB assay; assay type: toxicity, cell-based
MGC-803 [3] = assay: Antiproliferative activity against human MGC-803 cells assessed as inhibition of cell growth incubated for 72 hrs by SRB assay; assay type: functional, cell-based; conditions: MGC-803, 72 h
MGC-803 [4] = assay: Antiproliferative activity against human MGC-803 cells assessed as inhibition of cell growth at 0.25 to 8 uM by SRB assay; assay type: functional, cell-based; conditions: dose 0.25-8 µM, time 24-72 hrs, TDE = time-dependent effect
HGC-27 [5] = assay: Induction of apoptosis in human HGC-27 cells incubated for 48 hrs by Annexin-V FITC staining based flow cytometry analysis; assay type: functional, cell-based; conditions: dose 1-4 µM, DDE = dose-dependent effect
MGC-803 [6] = assay: Induction of apoptosis in human MGC-803 cells assessed as decrease in caspase 3 protein expression level at 1 to 4 uM incubated for 48 hrs by Western blot analysis; assay type: functional, cell-based; conditions: dose 1-4 µM
MGC-803 [7] = assay: Induction of apoptosis in human MGC-803 cells assessed as increase in cleaved caspase 3 protein expression level at 1 to 4 uM incubated for 48 hrs by Western blot analysis; assay type: functional, cell-based; conditions: dose 1-4 µM
HGC-27 [8] = assay: Induction of apoptosis in human HGC-27 cells assessed as increase in cleaved caspase 3 protein expression level at 1 to 4 uM incubated for 48 hrs by Western blot analysis; assay type: functional, cell-based; conditions: dose 1-4 µM
MGC-803 [9] = assay: Induction of apoptosis in human MGC-803 cells assessed as increase in cleaved caspase 7 protein expression level at 1 to 4 uM incubated for 48 hrs by Western blot analysis; assay type: functional, cell-based; conditions: dose 1-4 µM
HGC-27 [10] = assay: Induction of apoptosis in human HGC-27 cells assessed as increase in cleaved caspase 7 protein expression level at 1 to 4 uM incubated for 48 hrs by Western blot analysis; assay type: functional, cell-based; conditions: dose 1-4 µM
HGC-27 [11] = assay: Induction of apoptosis in human HGC-27 cells assessed as increase in cleaved caspase 9 protein expression level at 1 to 4 uM incubated for 48 hrs by Western blot analysis; assay type: functional, cell-based; conditions: dose 1-4 µM
MGC-803 [12] = assay: Induction of cell cycle arrest in human MGC-803 cells assessed as accumulation of cells at S phase at 1 uM incubated for 36 hrs by PI staining based flow cytometry analysis (reference value: 20.5%); assay type: functional
HGC-27 [13] = assay: Induction of cell cycle arrest in human HGC-27 cells assessed as accumulation of cells at S phase at 1 uM incubated for 36 hrs by PI staining based flow cytometry analysis (reference value: 8.87%); assay type: functional
HGC-27 [14] = assay: Induction of cell cycle arrest in human HGC-27 cells assessed as accumulation of cells at G1 phase at 2 uM incubated for 36 hrs by PI staining based flow cytometry analysis (reference value: 49.6%); assay type: functional
HGC-27 [15] = assay: Induction of cell cycle arrest in human HGC-27 cells assessed as accumulation of cells at G2/M phase at 4 uM incubated for 36 hrs by PI staining based flow cytometry analysis (reference value: 26.2%); assay type: functional
HGC-27 [16] = assay: Induction of cell cycle arrest in human HGC-27 cells assessed as decrease in p-cdc2 level at 1 to 4 uM by Western blot analysis; assay type: functional, cell-based; conditions: dose 1-4 µM
HGC-27 [17] = assay: Induction of cell cycle arrest in human HGC-27 cells assessed as decrease in cyclin-B1 level at 1 to 4 uM by Western blot analysis; assay type: functional, cell-based; conditions: dose 1-4 µM
HGC-27 [18] = assay: Induction of ROS generation in human HGC-27 cells at 1 to 4 uM incubated for 24 hrs by flow cytometry analysis; assay type: functional, cell-based; conditions: dose 1-4 µM
MGC-803 [19] = assay: Activation of ROS/JNK signalling in human MGC-803 cells assessed as increase in p-MKK4 level by Western blot analysis; assay type: cell-based; conditions: filed as activator, dose 1-4 µM, DDE = dose-dependent effect
HGC-27 [20] = assay: Activation of ROS/JNK signalling in human HGC-27 cells assessed as increase in p-MKK4 level by Western blot analysis; assay type: cell-based; conditions: filed as activator, dose 1-4 µM, DDE = dose-dependent effect
MGC-803 [21] = assay: Activation of ROS/JNK signalling in human MGC-803 cells assessed as increase in p-JNK level at 1 to 4 uM by Western blot analysis; assay type: cell-based; conditions: filed as activator, dose 1-4 µM
MGC-803 [22] = assay: Induction of apoptosis in human MGC-803 cells incubated for 48 hrs by Annexin V-FITC and PI staining based flow cytometry analysis; assay type: functional
HGC-27 [23] = assay: Induction of apoptosis in human HGC-27 cells incubated for 48 hrs by Annexin V-FITC and PI staining based flow cytometry analysis; assay type: functional
HGC-27 [24] = assay: Induction of apoptosis in human HGC-27 cells incubated for 48 hrs in presence of NAC by Annexin V-FITC and PI staining based flow cytometry analysis; assay type: functional
HGC-27 [25] = assay: Induction of DNA damage in human HGC-27 cells assessed as appearance of longer comet tail at 4 uM; assay type: functional, cell-based
MGC-803 [26] = assay: Induction of DNA damage in human MGC-803 cells assessed as increase in gamma-H2AX generation incubated for 24 hrs by immunofluorescence analysis; assay type: functional, cell-based
MGC-803 [27] = assay: Induction of DNA damage in human MGC-803 cells assessed as increase in p-ATM generation incubated for 48 hrs by Western blot analysis; assay type: functional, cell-based; conditions: DDE = dose-dependent effect
HGC-27 [28] = assay: Induction of DNA damage in human HGC-27 cells assessed as increase in p-ATM generation incubated for 48 hrs by Western blot analysis; assay type: functional, cell-based; conditions: DDE = dose-dependent effect
MGC-803 [29] = assay: Induction of DNA damage in human MGC-803 cells assessed as increase in p-Chk generation incubated for 48 hrs by Western blot analysis; assay type: functional, cell-based; conditions: DDE = dose-dependent effect
MGC-803 [30] = assay: Antitumor activity against human MGC-803 cells xenografted with BALB/c mouse assessed as reduction in tumor growth at 10 to 20 mg/kg, ip administered once every two days; assay type: functional, organism-based; conditions: dose 10-20 mg/kg
MGC-803 [31] = assay: Antitumor activity against human MGC-803 cells xenografted with BALB/c mouse assessed as atrophied cells at 10 to 20 mg/kg, ip administered once every two days; assay type: functional, organism-based; conditions: dose 10-20 mg/kg
[32] = Toxicity in BALB/c mouse xenografted with human MGC-803 cells assessed as effect on body weight at 10 to 20 mg/kg, ip administered once every two days; assay type: organism-based; conditions: in vivo, dose 10-20 mg/kg
[33] = Toxicity in BALB/c mouse xenografted with human MGC-803 cells assessed as effect on AST level at 10 to 20 mg/kg, ip administered once every two days; assay type: organism-based; conditions: in vivo, dose 10-20 mg/kg
[34] = Toxicity in BALB/c mouse xenografted with human MGC-803 cells assessed as effect on kidney at 10 to 20 mg/kg, ip administered once every two days measured after 15 days by H and E staining based assay; assay type: organism-based; conditions: in vivo, 360 h, dose 10-20 mg/kg, time 15 day
[35] = Toxicity in BALB/c mouse xenografted with human MGC-803 cells assessed as effect on heart at 10 to 20 mg/kg, ip administered once every two days measured after 15 days by H and E staining based assay; assay type: organism-based; conditions: in vivo, 360 h, dose 10-20 mg/kg, time 15 day
[36] = Toxicity in BALB/c mouse xenografted with human MGC-803 cells assessed as effect on lung at 10 to 20 mg/kg, ip administered once every two days measured after 15 days by H and E staining based assay; assay type: organism-based; conditions: in vivo, 360 h, dose 10-20 mg/kg, time 15 day

Question: Which IC50 (MGC-803 [1]) does the source give for `Cc1ccc(NC2=CC(=O)c3nc4n(c3C2=O)[C@H]2OC[C@@H](O)[C@H]2OC4)cc1C` here?
Answer: The IC50 was 860 nM.

Question: And the IC50 (MCF7)?
Answer: Its IC50 is 2080 nM.

Question: What about the IC50 (HeLa) of the same molecule?
Answer: Its IC50 is 2690 nM.

Question: And the IC50 at 72 h [2]?
Answer: The IC50 at 72 h was 24800 nM.

Question: And the IC50 (MGC-803 [3])?
Answer: The IC50 was 860 nM.

Question: And the Activity (MGC-803 [4])?
Answer: The Activity was “Tde”.

Question: What about the Activity (HGC-27 [5]) of the same molecule?
Answer: Its Activity is “Dde”.

Question: What about the Activity (MGC-803 [6]) of the same molecule?
Answer: Its Activity is “Active”.

Question: What about the Activity (MGC-803 [7]) of the same molecule?
Answer: The Activity was “Active”.

Question: What about the Activity (HGC-27 [8]) of the same molecule?
Answer: The Activity was “Active”.

Question: What about the Activity (MGC-803 [9]) of the same molecule?
Answer: The Activity was “Active”.

Question: What about the Activity (HGC-27 [10]) of the same molecule?
Answer: The Activity was “Active”.

Question: And the Activity (HGC-27 [11])?
Answer: The Activity was “Active”.

Question: And the Activity (MGC-803 [12])?
Answer: The Activity was 35.4%.

Question: What about the Activity (HGC-27 [13]) of the same molecule?
Answer: Its Activity is 8.8%.

Question: What about the Activity (HGC-27 [14]) of the same molecule?
Answer: Its Activity is 33.5%.

Question: And the Activity (HGC-27 [15])?
Answer: The Activity was 33.3%.

Question: And the Activity (HGC-27 [16])?
Answer: Its Activity is “Active”.

Question: And the Activity (HGC-27 [17])?
Answer: The Activity was “Active”.

Question: What about the Activity (HGC-27 [18]) of the same molecule?
Answer: The Activity was “Active”.

Question: And the Activity (MGC-803 [19])?
Answer: The Activity was “Dde”.

Question: And the Activity (HGC-27 [20])?
Answer: Its Activity is “Dde”.

Question: And the Activity (MGC-803 [21])?
Answer: The Activity was “Active”.

Question: What about the Activity (MGC-803 [22]) of the same molecule?
Answer: Its Activity is 55.4%.

Question: What about the Activity (HGC-27 [23]) of the same molecule?
Answer: The Activity was 54.5%.

Question: What about the Activity (HGC-27 [24]) of the same molecule?
Answer: The Activity was 1.4%.

Question: And the Activity (HGC-27 [25])?
Answer: The Activity was “Active”.

Question: What about the Activity (MGC-803 [26]) of the same molecule?
Answer: Its Activity is “Active”.

Question: And the Activity (MGC-803 [27])?
Answer: Its Activity is “Dde”.

Question: And the Activity (HGC-27 [28])?
Answer: Its Activity is “Dde”.

Question: And the Activity (MGC-803 [29])?
Answer: The Activity was “Dde”.

Question: And the Activity (MGC-803 [30])?
Answer: The Activity was “Active”.

Question: What about the Activity (MGC-803 [31]) of the same molecule?
Answer: The Activity was “Active”.

Question: What about the Activity [32] of the same molecule?
Answer: The Activity was “Non-Toxic”.

Question: And the Activity [33]?
Answer: The Activity was “Non-Toxic”.

Question: What about the Activity [34] of the same molecule?
Answer: The Activity was “Non-Toxic”.

Question: What about the Activity [35] of the same molecule?
Answer: The Activity was “Non-Toxic”.

Question: And the Activity [36]?
Answer: Its Activity is “Non-Toxic”.

Reference: ChEMBL document CHEMBL5113408, “Design, synthesis and antitumour activity of novel 5(6)-amino-benzimidazolequinones containing a fused morpholine” (Eur J Med Chem, 2022)
